According to ChEMBL document CHEMBL4229346, “New insights in the structure-activity relationships of 2-phenylamino-substituted benzothiopyrano[4,3-d]pyrimidines as kinase inhibitors” (Eur J Med Chem, 2018):

How the values were obtained:
[1] = Growth inhibition of HUVEC after 72 hrs by trypan blue assay; format: cell-based; settings: human, HUVEC cells
[2] = tested on: HeLa; test: Growth inhibition of human HeLa cells after 72 hrs by trypan blue assay; format: functional
[3] = tested on: A-431; test: Growth inhibition of human A431 cells after 72 hrs by trypan blue assay; format: functional; settings: A-431, 72 h
[4] = tested on: MSTO-211H; test: Growth inhibition of human MSTO-211H cells after 72 hrs by trypan blue assay; format: functional
[5] = molecular target: Vascular endothelial growth factor receptor 2 (Homo sapiens, UniProt P35968); test: Inhibition of recombinant human His-tagged KDR cytoplasmic domain (789 to 1356 residues) expressed in baculovirus expression system using Z'-LYTE-Tyr1 as substrate measured after 1 hr by Z'-LYTE assay
[6] = molecular target: Proto-oncogene tyrosine-protein kinase Src (Homo sapiens) (UniProt P12931); test: Inhibition of recombinant human Src at 10^-5 M using Ulight-Poly GAT[EAY(1:1:1)]n as substrate measured after 10 mins by LANCE assay relative to control
[7] = molecular target: RAF proto-oncogene serine/threonine-protein kinase (Homo sapiens) (UniProt P04049); test: Inhibition of recombinant human RAF1 at 10^-5 M relative to control
[8] = molecular target: T1, Aurora kinase A (Homo sapiens) (UniProt O14965); test: Inhibition of recombinant human Aurora-A at 10^-5 M using Ulight-RRRSLLE as substrate measured after 15 mins by LANCE assay relative to control
T1 sequence (whole entry): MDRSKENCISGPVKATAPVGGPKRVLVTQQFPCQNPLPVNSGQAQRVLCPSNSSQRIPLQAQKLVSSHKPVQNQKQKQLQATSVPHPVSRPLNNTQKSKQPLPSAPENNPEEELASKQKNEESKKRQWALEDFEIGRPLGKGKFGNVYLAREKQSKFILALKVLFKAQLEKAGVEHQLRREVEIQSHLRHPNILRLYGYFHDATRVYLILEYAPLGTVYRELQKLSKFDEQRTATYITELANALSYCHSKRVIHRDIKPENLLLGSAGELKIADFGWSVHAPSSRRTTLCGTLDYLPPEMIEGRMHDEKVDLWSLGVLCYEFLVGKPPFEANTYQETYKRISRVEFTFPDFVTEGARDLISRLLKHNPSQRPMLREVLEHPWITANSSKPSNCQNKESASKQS

[9] = molecular target: Cyclin-dependent kinase 1/cyclin B1 (Homo sapiens) (UniProt P06493+P14635); test: Inhibition of recombinant human CDK1/Cyclin B at 10^-5 M using Ulight-CFFKNIVTPRTPPPSQGK-amide as substrate measured after 15 mins by LANCE assay relative to control; format: protein-complex assay
[10] = molecular target: Epidermal growth factor receptor (Homo sapiens) (UniProt P00533); test: Inhibition of recombinant human EGFR at 10^-5 M using Ulight-CAGAGAIETDKEYYTVKD as substrate measured after 15 mins by LANCE assay relative to control
[11] = molecular target: Platelet-derived growth factor receptor beta (Homo sapiens) (UniProt P09619); test: Inhibition of recombinant human PDGFRbeta at 10^-5 M using Ulight-Poly GAT[EAY(1:1:1)]n as substrate measured after 30 mins by LANCE assay relative to control

Chain of Proto-oncogene tyrosine-protein kinase Src (Homo sapiens) (P12931 2-536 limits assumed): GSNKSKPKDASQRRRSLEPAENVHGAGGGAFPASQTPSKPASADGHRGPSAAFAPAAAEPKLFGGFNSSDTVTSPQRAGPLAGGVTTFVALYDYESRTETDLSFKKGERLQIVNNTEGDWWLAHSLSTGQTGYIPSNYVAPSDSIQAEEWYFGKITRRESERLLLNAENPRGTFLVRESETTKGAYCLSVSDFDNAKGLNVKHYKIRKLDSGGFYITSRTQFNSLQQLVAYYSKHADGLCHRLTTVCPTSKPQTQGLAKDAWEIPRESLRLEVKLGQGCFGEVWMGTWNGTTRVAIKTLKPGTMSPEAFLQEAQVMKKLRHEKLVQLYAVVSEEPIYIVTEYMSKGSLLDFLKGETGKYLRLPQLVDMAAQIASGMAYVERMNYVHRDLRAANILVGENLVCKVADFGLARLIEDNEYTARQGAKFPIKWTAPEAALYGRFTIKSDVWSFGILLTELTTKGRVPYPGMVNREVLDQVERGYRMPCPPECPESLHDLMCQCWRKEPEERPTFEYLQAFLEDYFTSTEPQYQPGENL
Chain of Epidermal growth factor receptor (Homo sapiens) (P00533 whole entry): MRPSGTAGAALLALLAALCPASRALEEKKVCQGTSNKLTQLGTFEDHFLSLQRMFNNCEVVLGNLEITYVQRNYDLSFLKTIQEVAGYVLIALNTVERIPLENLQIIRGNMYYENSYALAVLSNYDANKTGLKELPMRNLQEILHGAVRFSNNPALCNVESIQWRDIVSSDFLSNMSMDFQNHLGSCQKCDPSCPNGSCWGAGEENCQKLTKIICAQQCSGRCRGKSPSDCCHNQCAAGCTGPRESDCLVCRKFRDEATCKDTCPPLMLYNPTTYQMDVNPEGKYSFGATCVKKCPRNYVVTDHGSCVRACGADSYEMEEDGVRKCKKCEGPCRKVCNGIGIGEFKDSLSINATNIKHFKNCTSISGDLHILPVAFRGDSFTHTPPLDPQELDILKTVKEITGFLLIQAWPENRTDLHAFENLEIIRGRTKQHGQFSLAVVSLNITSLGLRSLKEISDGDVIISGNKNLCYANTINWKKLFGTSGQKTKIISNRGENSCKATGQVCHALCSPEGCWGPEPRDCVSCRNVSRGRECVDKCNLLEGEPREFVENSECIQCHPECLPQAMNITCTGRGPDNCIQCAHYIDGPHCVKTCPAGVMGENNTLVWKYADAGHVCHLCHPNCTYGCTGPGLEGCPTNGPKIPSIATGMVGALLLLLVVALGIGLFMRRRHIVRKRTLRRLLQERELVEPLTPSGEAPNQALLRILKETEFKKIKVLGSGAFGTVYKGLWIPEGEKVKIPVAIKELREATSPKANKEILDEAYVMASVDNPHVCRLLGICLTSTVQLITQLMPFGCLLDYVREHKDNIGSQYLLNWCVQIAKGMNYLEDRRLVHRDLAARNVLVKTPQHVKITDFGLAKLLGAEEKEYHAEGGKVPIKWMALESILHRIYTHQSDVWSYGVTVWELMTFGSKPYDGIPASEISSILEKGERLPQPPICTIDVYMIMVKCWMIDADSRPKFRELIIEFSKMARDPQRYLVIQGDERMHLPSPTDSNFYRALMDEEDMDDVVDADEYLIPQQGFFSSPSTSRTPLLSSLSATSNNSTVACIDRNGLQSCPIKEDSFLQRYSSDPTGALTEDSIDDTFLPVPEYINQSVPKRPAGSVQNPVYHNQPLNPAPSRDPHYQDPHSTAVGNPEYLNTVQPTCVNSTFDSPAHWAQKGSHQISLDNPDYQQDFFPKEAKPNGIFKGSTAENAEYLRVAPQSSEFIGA
Chain of Vascular endothelial growth factor receptor 2 (P35968 whole entry, the tested form may be a part): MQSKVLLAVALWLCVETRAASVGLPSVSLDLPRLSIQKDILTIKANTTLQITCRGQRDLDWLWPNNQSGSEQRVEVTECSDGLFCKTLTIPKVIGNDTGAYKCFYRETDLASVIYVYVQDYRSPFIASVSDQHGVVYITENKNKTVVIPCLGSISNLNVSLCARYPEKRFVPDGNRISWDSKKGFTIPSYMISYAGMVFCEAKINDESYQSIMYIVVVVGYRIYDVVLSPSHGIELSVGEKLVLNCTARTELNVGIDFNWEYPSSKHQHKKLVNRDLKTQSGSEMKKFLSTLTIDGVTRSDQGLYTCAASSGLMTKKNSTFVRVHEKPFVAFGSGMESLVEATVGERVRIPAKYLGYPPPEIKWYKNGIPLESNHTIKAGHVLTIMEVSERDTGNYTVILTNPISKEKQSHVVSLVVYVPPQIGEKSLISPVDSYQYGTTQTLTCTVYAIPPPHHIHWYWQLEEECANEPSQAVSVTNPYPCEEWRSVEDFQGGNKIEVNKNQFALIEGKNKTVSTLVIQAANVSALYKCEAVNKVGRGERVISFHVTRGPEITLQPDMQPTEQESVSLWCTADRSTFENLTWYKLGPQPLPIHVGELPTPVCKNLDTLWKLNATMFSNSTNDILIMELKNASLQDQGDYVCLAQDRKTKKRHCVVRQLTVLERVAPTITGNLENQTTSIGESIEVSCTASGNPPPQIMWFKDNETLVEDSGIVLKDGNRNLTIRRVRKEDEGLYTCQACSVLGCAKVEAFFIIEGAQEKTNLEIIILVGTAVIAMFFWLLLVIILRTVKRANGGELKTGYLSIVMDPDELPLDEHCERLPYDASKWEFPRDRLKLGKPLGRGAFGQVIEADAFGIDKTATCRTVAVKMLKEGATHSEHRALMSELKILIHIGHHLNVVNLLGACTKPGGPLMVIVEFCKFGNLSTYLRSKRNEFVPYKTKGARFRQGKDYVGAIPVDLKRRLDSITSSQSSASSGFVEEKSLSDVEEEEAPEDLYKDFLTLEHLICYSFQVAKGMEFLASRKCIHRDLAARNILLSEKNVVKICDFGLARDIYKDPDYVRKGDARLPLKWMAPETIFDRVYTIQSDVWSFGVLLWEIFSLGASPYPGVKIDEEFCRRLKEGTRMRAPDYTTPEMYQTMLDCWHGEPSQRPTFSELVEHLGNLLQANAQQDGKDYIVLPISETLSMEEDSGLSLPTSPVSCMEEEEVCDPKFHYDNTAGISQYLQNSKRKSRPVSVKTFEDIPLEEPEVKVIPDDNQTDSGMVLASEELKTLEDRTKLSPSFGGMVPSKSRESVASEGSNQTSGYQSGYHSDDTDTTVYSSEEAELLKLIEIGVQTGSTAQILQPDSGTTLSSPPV
Chain of Cyclin-dependent kinase 1/cyclin B1 (Homo sapiens) (P06493 whole entry, looked up): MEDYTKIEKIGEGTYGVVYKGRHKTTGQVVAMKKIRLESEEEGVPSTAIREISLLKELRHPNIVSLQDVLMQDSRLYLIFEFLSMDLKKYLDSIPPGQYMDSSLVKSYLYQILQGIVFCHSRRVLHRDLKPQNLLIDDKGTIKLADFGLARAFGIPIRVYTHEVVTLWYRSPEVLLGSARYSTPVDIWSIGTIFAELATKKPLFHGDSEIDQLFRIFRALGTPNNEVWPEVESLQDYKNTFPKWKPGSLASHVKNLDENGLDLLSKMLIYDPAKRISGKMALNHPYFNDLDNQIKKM
Chain of Cyclin-dependent kinase 1/cyclin B1 (Homo sapiens) (P14635 whole entry, looked up): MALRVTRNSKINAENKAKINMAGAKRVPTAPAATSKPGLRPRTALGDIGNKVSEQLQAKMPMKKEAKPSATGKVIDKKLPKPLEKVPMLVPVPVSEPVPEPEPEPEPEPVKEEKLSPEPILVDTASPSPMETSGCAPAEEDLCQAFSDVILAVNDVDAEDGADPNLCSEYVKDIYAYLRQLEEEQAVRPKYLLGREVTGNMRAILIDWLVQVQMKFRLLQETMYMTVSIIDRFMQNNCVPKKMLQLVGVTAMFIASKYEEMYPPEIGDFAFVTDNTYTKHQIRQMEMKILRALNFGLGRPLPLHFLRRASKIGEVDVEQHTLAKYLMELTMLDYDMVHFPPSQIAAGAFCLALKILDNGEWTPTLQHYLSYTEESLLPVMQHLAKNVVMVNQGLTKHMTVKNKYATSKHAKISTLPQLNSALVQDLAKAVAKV
Chain of RAF proto-oncogene serine/threonine-protein kinase (Homo sapiens) (P04049 whole entry): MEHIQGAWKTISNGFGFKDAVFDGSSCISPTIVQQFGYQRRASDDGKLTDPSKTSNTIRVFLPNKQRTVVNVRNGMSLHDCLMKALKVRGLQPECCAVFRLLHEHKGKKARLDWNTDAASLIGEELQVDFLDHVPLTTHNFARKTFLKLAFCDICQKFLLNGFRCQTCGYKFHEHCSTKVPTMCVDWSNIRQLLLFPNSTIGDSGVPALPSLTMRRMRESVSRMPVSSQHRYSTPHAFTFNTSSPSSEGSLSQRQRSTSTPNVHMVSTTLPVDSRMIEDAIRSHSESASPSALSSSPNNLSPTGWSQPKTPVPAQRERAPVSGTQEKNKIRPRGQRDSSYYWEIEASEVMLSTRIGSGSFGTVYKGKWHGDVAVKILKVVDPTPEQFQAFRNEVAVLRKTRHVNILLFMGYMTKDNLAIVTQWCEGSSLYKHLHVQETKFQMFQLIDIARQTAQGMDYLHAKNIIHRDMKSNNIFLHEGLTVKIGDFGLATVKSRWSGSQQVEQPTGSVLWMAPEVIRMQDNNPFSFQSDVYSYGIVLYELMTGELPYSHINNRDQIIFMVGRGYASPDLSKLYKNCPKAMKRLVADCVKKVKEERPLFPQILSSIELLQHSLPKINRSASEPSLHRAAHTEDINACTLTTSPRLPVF

Structure (SMILES) | GI50 at 72 h [1] [µM] | GI50 [2] [µM] | GI50 [3] [µM] | GI50 [4] [µM] | IC50 [5] [nM] | inhibition [6] [%] | inhibition [7] [%] | inhibition [8] [%] | inhibition [9] [%] | inhibition [10] [%] | inhibition [11] [%]
Fc1cccc(Nc2ncc3c(n2)-c2ccc(Cl)cc2SC3)c1 | 18.2 | 20 | 18.2 | > 20 |  |  |  |  |  |  | 
FC(F)(F)c1cccc(Nc2ncc3c(n2)-c2ccc(Cl)cc2SC3)c1 | 10.5 | > 20 | 10 | 3.18 |  |  |  |  |  |  | 
Fc1cccc(Nc2ncc3c(n2)-c2ccccc2SC3)c1 | 4.51 | 14 | 9.76 | 2.06 |  |  |  |  |  |  | 
COc1cc(Nc2ncc3c(n2)-c2ccc(Cl)cc2SC3)cc(OC)c1OC | 2.54 | 3.46 | 4.27 | 3.4 |  |  |  |  |  |  | 
Clc1cccc(Nc2ncc3c(n2)-c2ccc(Cl)cc2SC3)c1 | 16.5 | > 20 | > 20 | 7.78 |  |  |  |  |  |  | 
COc1ccc2c(c1)SCc1cnc(Nc3cccc(Br)c3)nc1-2 | 1.89 | 2.93 | 4.77 | 2.2 |  |  |  |  |  |  | 
COc1cccc(Nc2ncc3c(n2)-c2ccccc2SC3)c1 | 0.8 | 6.03 | 9.43 | 0.8 |  |  |  |  |  |  | 
COc1ccc2c(c1)SCc1cnc(Nc3cccc(Cl)c3)nc1-2 | 11.2 | 11.9 | 8.25 | 5.6 |  |  |  |  |  |  | 
Brc1cccc(Nc2ncc3c(n2)-c2ccccc2SC3)c1 | 7 | > 20 | 10.6 | 7.67 |  |  |  |  |  |  | 
COc1ccc(Nc2ncc3c(n2)-c2ccccc2SC3)cc1OC | 1.5 | 1.5 | 2.32 | 1.63 | 110 | 53 | 6.1 | 88.6 | 47.4 | 6.5 | 39.9
Cc1cc(C)c(/C=C2\C(=O)Nc3ccccc32)[nH]1 [SEMAXANIB] |  | 38 | 37 | 27 |  |  |  |  |  |  | 
COc1cccc(Nc2ncc3c(n2)-c2ccc(Cl)cc2SC3)c1 | 14.2 | > 20 | 16.8 | 6.83 |  |  |  |  |  |  | 
COc1cc(Nc2ncc3c(n2)-c2ccccc2SC3)cc(OC)c1OC | 1.99 | 1.26 | 1.92 | 1.08 |  |  |  |  |  |  | 
Clc1ccc2c(c1)SCc1cnc(Nc3cccc(Br)c3)nc1-2 | 7.11 | > 20 | 17 | 8.5 |  |  |  |  |  |  | 
COc1ccc(Nc2ncc3c(n2)-c2ccc(Cl)cc2SC3)cc1OC | 2.53 | 3.42 | 2.23 | 4.4 |  |  |  |  |  |  | 
COc1ccc2c(c1)SCc1cnc(Nc3cc(OC)c(OC)c(OC)c3)nc1-2 | 3.71 | 0.63 | 1.75 | 0.92 |  |  |  |  |  |  | 
COc1ccc2c(c1)SCc1cnc(Nc3cccc(C(F)(F)F)c3)nc1-2 | 4.55 | 6.02 | 6.24 | 9.04 |  |  |  |  |  |  | 
COc1cccc(Nc2ncc3c(n2)-c2ccc(OC)cc2SC3)c1 | 2.49 | 2.8 | 2.1 | 2.57 |  |  |  |  |  |  | 
Clc1cccc(Nc2ncc3c(n2)-c2ccccc2SC3)c1 | 7.13 | > 20 | 10.4 | 6.1 |  |  |  |  |  |  | 
FC(F)(F)c1cccc(Nc2ncc3c(n2)-c2ccccc2SC3)c1 | 5.02 | > 20 | 13.5 | 11.8 |  |  |  |  |  |  | 
COc1ccc2c(c1)SCc1cnc(Nc3cccc(F)c3)nc1-2 | 11.5 | 10.3 | 15.5 | 13 |  |  |  |  |  |  | 
COc1ccc2c(c1)SCc1cnc(Nc3ccc(OC)c(OC)c3)nc1-2 | 10.8 | 18.8 | 6.06 | > 20 |  |  |  |  |  |  | 
